Data on seven compounds can be found in article PMC6003237 (Bioorganic & medicinal chemistry, 2017).

SMILES strings stand for the structures. Values joined by “and” are separate entries in the source; they are usually repeats but may differ in a detail not shown here. Equal entries are not always repeated. Where two headings read alike, the source gives them in different places. *1 amine or outer side, *2 acyl side, *3 side chain or, on linkers, in order; H or OH if unused. Where a SMILES comes first, the peptide text is derived from it. [ ]: non-standard residue; d: D form. The star is where a group is joined. Emetine(N2') = CC[C@H]1CN2CCc3cc(OC)c(OC)cc3[C@@H]2C[C@@H]1C[C@@H]1c2cc(OC)c(OC)cc2CCN1*; PABC = O=C(OCc1ccc(N[*:1])cc1)[*:2]

Series [1] concerns the target Purified native human prostate specific antigen (PSA) (Homo sapiens, UniProt P07288). In words: PSA-mediated hydrolysis of prodrug ex-vivo. In kind it is biochemical.
Another series deals with LNCaP. As to the kind of experiment: MTT cytotoxicity in PSA producing LNCaP cells. In kind it is cell-based, human.
In the next series the test system is CWR22Rv1. In words: MTT cytotoxicity in low PSA-producing CWR22Rv1 cells. Type of series: cell-based, human.
Another series deals with PC3. In words: MTT cytotoxicity in non-PSA-producing PC3 cells. In kind it is cell-based, human.
For series [2], the system named is mice. To be noted: for Effects/observations at higher doses / MTD (nmol injected): IV injection; for MTD (nmol injected): mice of average body weight 25 g.
Series [3] is described as follows: Stability / hydrolysis in 10% FBS.
Series [4] can be described thus: Stability in human plasma. The settings on record: 48 h. In kind it is in vitro ADME.
The conditions of series [5]: PBS.
The subject of series [6] is different cancer cell lines. The settings on record: cancer cell lines; ref [6]–[9]; cited from earlier work.
A further series has as its system DPPIV. To be noted: activation by DPPIV; ref [9]; cited from earlier work.
For series [7], the system named is mice. The settings on record: earlier studies of the authors, ref not given; cited from earlier work.
For series [8], the system named is NCI 60 cancer cell screen. To be noted: ref not given; cited from earlier work.
Another series has as its system PC-3 xenografts. To be noted: dose of 8 mg/kg, earlier studies, ref not given; cited from earlier work.
Series [9] can be described thus: Hydrolysis in LNCaP conditioned media. To be noted: serum containing LNCaP conditioned media, 37 °C, 24–72 h.
For series [10] the following is noted: human, 200 µM.

A word on the GI50: it is the concentration at which growth is held to half of that of the control. The IC50 is the point on the concentration scale where inhibition reaches its midpoint. A lower IC50 goes with inhibition by little substance.

Chain of Purified native human prostate specific antigen (PSA) (P07288 25-261): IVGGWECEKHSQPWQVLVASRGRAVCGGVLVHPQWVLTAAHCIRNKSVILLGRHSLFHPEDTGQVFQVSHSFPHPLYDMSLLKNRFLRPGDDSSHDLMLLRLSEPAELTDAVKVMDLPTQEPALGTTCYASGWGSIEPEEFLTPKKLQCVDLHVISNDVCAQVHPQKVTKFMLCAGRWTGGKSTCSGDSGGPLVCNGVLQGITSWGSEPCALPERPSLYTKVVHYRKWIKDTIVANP

For the compound `CC[C@H]1CN2CCc3cc(OC)c(OC)cc3[C@@H]2C[C@@H]1C[C@@H]1c2cc(OC)c(OC)cc2CCN1C(=O)OCc1ccc(NC(=O)[C@H](CC(C)C)NC(=O)[C@H](CO)NC(=O)[C@H](CCC(N)=O)NC(=O)[C@H](CC(C)C)NC(=O)[C@H](CCCCN)NC(=O)[C@H](CO)NC(=O)[C@H](CO)NC(=O)[C@H](Cc2c[nH]cn2)NC(C)=O)cc1` [compound 16] (Ac-HSSKLQSL[PABC]-{Emetine(N2')}), the “% of 14 observed after incubation with PSA (LCMS)” value in series [1] (purified PSA, 2 h) was found to be 20%; in series [1] (purified PSA, 6 h), 50%; in [1] (purified PSA, 20 h), 98%. Moreover, the “IC50 fold higher than the IC50 of emetine” value with LNCaP (LNCaP) and in the series on CWR22Rv1 was “about 2 fold” in each case.

Consider `CC[C@H]1CN2CCc3cc(OC)c(OC)cc3[C@@H]2C[C@@H]1C[C@@H]1c2cc(OC)c(OC)cc2CCN1C(=O)OCc1ccc(NC(=O)[C@H](CC(C)C)NC(=O)[C@H](CO)NC(=O)[C@H](CCC(N)=O)NC(=O)[C@H](CC(C)C)NC(=O)[C@H](CCCCN)NC(=O)[C@H](CO)NC(=O)[C@H](CO)NC(=O)[C@H](Cc2cnc[nH]2)NC(C)=O)cc1` [compound 16] (Ac-HSSKLQSL[PABC]-{Emetine(N2')}), for which, in the series with PC3 (PC3 vs CWR22Rv1 and LNCaP, from IC50), the “times less cytotoxic in non-PSA producing cells than in PSA producing cells” value is 7–9 times. In addition, in the series with mice [2] (25 mg/kg (402 nmol) IV), the “observation at the MTD” value was “acute distress followed by recovery within an hour of injection”. Further, the “Effects/observations at higher doses” value in the series with mice [2] (mice) is listed as “Convulsion started about 1 min post injection at higher doses”. In addition, in the series with mice [2], the “MTD (nmol injected)” value came out at 402 nmol. In addition, the “dose producing acute toxicity (convulsions and death)” value with mice [2] (single IV injection, mice) is reported as 50 mg/kg. Moreover, the “dose producing acute toxicity (convulsions and death), nmol” value in the series with mice [2] (single IV injection, mice) is recorded as 804 nmol. Also, the “stability (cleavage, hydrolysis/decomposition)” value in series [3] (10% FBS, five-day incubation at 37 °C) is recorded as “no sign of cleavage or any form of hydrolysis/decomposition was detectable”; in series [5] (five-day incubation at 37 °C), “no sign of cleavage or any form of hydrolysis/decomposition was detectable”. Further, the “stability in human plasma (detection of 14 or emetine)” value in [4] is on record as “Neither precursor 14 nor emetine was detected”.

Take `CC[C@H]1CN2CCc3cc(OC)c(OC)cc3[C@@H]2C[C@@H]1C[C@@H]1c2cc(OC)c(OC)cc2CCN1C(=O)OCc1ccc(NC(=O)[C@@H]2CCCN2C(=O)[C@H](C)N)cc1` [compound 10, 4-((S)-1-(L-Alanyl)pyrrolidine-2-carboxamido)benzyl (R)-1-(((2R,3R,11bS)-3-ethyl-9,10-dimethoxy-1,3,4,6,7,11b-hexahydro-2H-pyrido[2,1-a]isoquinolin-2-yl)methyl)-6,7-dimethoxy-3,4-dihydroisoquinoline-2(1H)-carboxylate]: the “in vitro cytotoxicity compared to emetine” value in series [6] is “equipotency with emetine”. The “Effects/observations at higher doses” value with mice [2] (mice) is “Convulsion and death at higher doses”. The “MTD (nmol injected)” value in the series on mice [2] was 1003 nmol and 1002 nmol. In the series on DPPIV, the “time for efficient quantitative release of emetine” value is at most 24 h.

On to `CC[C@H]1CN2CCc3cc(OC)c(OC)cc3[C@@H]2C[C@@H]1C[C@@H]1c2cc(OC)c(OC)cc2CCN1C(=O)/C(C)=C(/C)C(=O)O` [compound 21], for which, in the series with mice [7], the lethal dose is on record as 32 mg/kg. In the series on mice [2] (mice), the “Effects/observations at higher doses” value was 32 mg/kg (1318 nmol) is toxic like emetine.

Take `CC[C@H]1CN2CCc3cc(OC)c(OC)cc3[C@@H]2C[C@@H]1C[C@H]1NCCc2cc(OC)c(OC)cc21` [Emetine, emetine, reference compound]: the concentration for 50% growth inhibition (GI50) in series [8] is 27 nM. Besides, in the series on mice [2] (mice), the “Effects/observations at higher doses” value is “Convulsion and death within 1 min of injection at 16 mg/kg”. For the same compound, the “MTD (nmol injected)” value with mice [2] came out at 416 nmol. In the series on mice [2] (single IV injection, mice), the “dose producing acute toxicity (convulsions and death)” value was 16 mg/kg. The therapeutic efficacy entry in the series on PC-3 xenografts is on record as “no therapeutic efficacy”.

`CC[C@H]1CN2CCc3cc(OC)c(OC)cc3[C@@H]2C[C@@H]1C[C@@H]1c2cc(OC)c(OC)cc2CCN1C(=O)OCc1ccc(NC(=O)[C@H](CC(C)C)NC(=O)[C@@H](N)CO)cc1` [compound 14, 4-((S)-2-((S)-2-Amino-3-hydroxypropanamido)-4-methyl-pentanamido) benzyl (R)-1-(((2R,3R,11bS)-3-ethyl-9,10-dimethoxy-1,3,4,6,7,11b-hexahydro-2H-pyrido[2,1-a]isoquinolin-2-yl)methyl)-6,7-dimethoxy-3,4-dihydroisoquinoline-2(1H)-carboxylate]: the “% Emetine after 72 h incubation” value in [1] (Purified PSA, 37 °C, 72 h) stood at 0.0%; in [5] (37 °C, 72 h), 0.0%. In addition, the “hydrolysis / conversion to emetine on incubation with purified PSA (LCMS)” value in series [1] (purified PSA, 37 °C, 24–72 h) was “not observed”. In addition, the “hydrolysis to emetine or any product (LCMS)” value in series [9] is given as “did not result in its hydrolysis to emetine or any product of hydrolysis”; in [3] (10% FBS containing media, 37 °C, 24–72 h), “did not result in its hydrolysis to emetine or any product of hydrolysis”; in series [5] (37 °C, 24–72 h), “did not result in its hydrolysis to emetine or any product of hydrolysis”. Further, the “cytotoxicity compared to emetine” value with PC3 and in the series with LNCaP was “comparable to emetine” each time. Besides, the half-inhibitory concentration (IC50) was below 100 nM in the series with PC3 (Homo sapiens, PC-3, 72 h) and below 100 nM in the series with LNCaP (Homo sapiens, LNCaP, 72 h). Besides, the “Effects/observations at higher doses” value with mice [2] (mice) was “Toxic effect was observed at higher doses”. Besides, the “MTD (nmol injected)” value in the series with mice [2] is reported as 1541 nmol. Besides, the “% Ser-Leu-PABC-Emetine, 14 after 72 h incubation” value in series [10] is 100%; in [5] (37 °C, 72 h) it was 100%.

In the case of `CC[C@@H]1C[C@@H](C[C@@H]2c3cc(OC)c(OC)cc3CCN2C(=O)OCc2ccc(NC(=O)[C@H](CC(C)C)NC(=O)[C@H](CO)NC(C)=O)cc2)[C@H]2c3cc(OC)c(OC)cc3CCN2C1` [compound 15, 4-((S)-2-((S)-2-Acetamido-3-hydroxypropanamido)-4-methyl-pentanamido) benzyl (R)-1-(((2R,3R,11bS)-3-ethyl-9,10-dimethoxy-1,3,4,6,7,11b-hexahydro-2H-pyrido[2,1-a]isoquinolin-2-yl)methyl)-6,7-dimethoxy-3,4-dihydroisoquinoline-2(1H)-carboxylate], the “concentration at which significant cytotoxicity was demonstrated” value in the series with PC3 (PC3 (Fig. 3B)) and in the series with LNCaP (LNCaP (Fig. 3A)) was 10,000 nM throughout.
